{
  "source": "paper PMC4532424",
  "about": "“The Novel Cyclophilin Inhibitor CPI-431-32 Concurrently Blocks HCV and HIV-1 Infections via a Similar Mechanism of Action” (PLoS ONE, 2015)",
  "test_system": "HIV-1 NL4.3",
  "test": "HIV-1 nuclear import analysis, integrase Western blot of cytoplasmic and nuclear extracts",
  "format": "cell-based",
  "conditions": "2 μM; 6 h post-infection; nuclear extract",
  "description": "CD4+ HeLa cells (10^7 cells) were infected with NL4.3 (1 μg of p24) derived from 293T-transfected cells in the presence or absence of CPI-431-32 (2 μM). Six hours post-infection, cells were fractionated using the Thermo Scientific NE-PER nuclear and cytoplasmic extraction kit (Life Technologies). Cytoplasmic and nuclear extracts were analyzed by Western blotting using anti-HIV-1 integrase (Abcam), anti-CypA (Abcam) and anti-histone H2 (Abcam) antibodies.\nFig 4 CPI-431-32 blocks HIV-1 reverse transcription and nuclear import. TZM cells were infected with DNase-treated NL4-3 HIV-1 together with DMSO or CPI-431-32 (2 μM). Target cell DNA was isolated at the indicated times and was used to detect early (A) and late HIV-1 reverse transcripts (B). TZM cells were infected with NL4.3 in the presence or absence of CPI-431-32 (2 μM). Six hours post-infection, cells were fractionated and cytoplasmic and nuclear extracts analyzed by Western blotting (C). […]\nTo further elucidate the effects of CypA-capsid disruption, we analyzed how CPI-431-32 affects the distribution of incoming HIV-1 cores within the first 6 hours of infection as determined by the presence of the HIV-1 integrase protein. TZM cells were infected with HIV-1 NL4.3 for 6 h in the absence or presence of CPI-431-32, then fractionated into cytosolic and nuclear extracts for quantitation of HIV-1 integrase by Western blotting. […]",
  "note": "Non-standard residues stand in square brackets, D forms with d. Residues, ends and D or L forms follow the SMILES beside them. NMeThr(4R-Me,4-(CH2)6NHAc) = CN[C@H](C(=O)O)[C@H](O)[C@H](C)CCCCCCNC(C)=O; NMeL = CN[C@@H](CC(C)C)C(=O)O; NMeV = CN[C@H](C(=O)O)C(C)C; dNMeA = CN[C@H](C)C(=O)O; Abu = CC[C@H](N)C(=O)O",
  "data": [
    {"smiles": "CC[C@@H]1NC(=O)[C@H]([C@H](O)[C@H](C)CCCCCCNC(C)=O)N(C)C(=O)[C@H](C(C)C)N(C)C(=O)[C@H](CC(C)C)N(C)C(=O)[C@H](CC(C)C)N(C)C(=O)[C@@H](C)NC(=O)[C@H](C)NC(=O)[C@H](CC(C)C)N(C)C(=O)[C@H](C(C)C)NC(=O)[C@H](CC(C)C)N(C)C(=O)[C@@H](C)N(C)C1=O", "note": "[CPI-431-32] (cyclo(A[dA][NMeL][NMeL][NMeV][NMeThr(4R-Me,4-(CH2)6NHAc)][Abu][dNMeA][NMeL]V[NMeL]))", "values": [
      {"measurement": "Nuclear accumulation of HIV-1 integrase (in words)", "value": "completely prevented the nuclear accumulation of integrase"}
    ]}
  ]
}
